Measured values: US8163740B2, “6-substituted benzoxazines” (Hoffmann-La Roche Inc., priority 2008, dated 2012)

Key:
[1] = biological target: recombinant human 5-HT5A receptor (Homo sapiens, UniProt P47898); test: [3H]LSD radioligand binding assay; conditions: [3H]LSD (approximately 1 nM); membranes from HEK-EBNA cells transiently expressing 5-HT5A; Ki by Cheng-Prussoff equation; read-out: Ki
How it was run: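 Membranes from HEK-EBNA cells transiently expressing the receptor, with ~1 nM [3H]LSD in 50 mM Tris, 1 mM EGTA, 10 mM MgCl2, 10 μM pargyline, pH 7.4, SPA bead format. Incubated 120 min RT; nonspecific binding defined with 2 μM methiothepin. 10 concentrations in duplicate; IC50 converted to Ki via Cheng-Prusoff.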

recombinant human 5-HT5A receptor, sequence (P47898 whole entry): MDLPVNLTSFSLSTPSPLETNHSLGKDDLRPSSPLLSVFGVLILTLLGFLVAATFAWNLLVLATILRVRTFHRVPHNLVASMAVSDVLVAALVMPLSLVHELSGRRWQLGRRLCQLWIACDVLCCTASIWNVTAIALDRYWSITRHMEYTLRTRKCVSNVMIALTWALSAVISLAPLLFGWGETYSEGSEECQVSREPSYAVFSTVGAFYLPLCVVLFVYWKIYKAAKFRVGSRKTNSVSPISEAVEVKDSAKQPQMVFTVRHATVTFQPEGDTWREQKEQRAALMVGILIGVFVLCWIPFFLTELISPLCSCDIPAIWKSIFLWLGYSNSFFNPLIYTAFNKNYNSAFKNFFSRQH

melting point [°C]	Ki [1] [nM]	SMILES
162	2.41	COc1cccc2c1C(NC1=Nc3ccc(Nc4nnc(C)o4)cc3CO1)CC2 (centres unmarked) [Example 101, N^2-(7-Methoxy-indan-1-yl)-N^6-(5-methyl-[1,3,4]oxadiazol-2-yl)-4H-benzo[d][1,3]oxazine-2,6-diamine]
137	1.4	Cc1nnc(Nc2ccc3c(c2)COC(N[C@@H]2CCc4ccccc42)=N3)o1 [Example 118, N^2—(R)-Indan-1-yl-N^6-(5-methyl-[1,3,4]oxadiazol-2-yl)-4H-benzo[d][1,3]oxazine-2,6-diamine]
206	11.6	N=C(NO)c1ccc2c(c1)COC(N[C@@H]1CCc3ccccc31)=N2 [Example 130, N-Hydroxy-2-((R)-indan-1-ylamino)-4H-benzo[d][1,3]oxazine-6-carboxamidine]
138	75.7	Cc1nc(-c2ccc3c(c2)COC(N[C@@H]2CCc4ccccc42)=N3)no1 [Example 133, (R)-Indan-1-yl-[6-(5-methyl-[1,2,4]oxadiazol-3-yl)-4H-benzo[d][1,3]oxazin-2-yl]-amine]
155	8.76	FC(F)(F)c1nnc(Nc2ccc3c(c2)COC(N[C@@H]2CCc4ccccc42)=N3)o1 [Example 138, N^2—(R)-Indan-1-yl-N^6-(5-trifluoromethyl-[1,3,4]oxadiazol-2-yl)-4H-benzo[d][1,3]oxazine-2,6-diamine]
162	17.6	C(=C\c1ccc2c(c1)COC(N[C@@H]1CCc3ccccc31)=N2)/c1ccccc1 [Example 140, (R)-Indan-1-yl-[6-((E)-styryl)-4H-benzo[d][1,3]oxazin-2-yl]-amine]
132	7.62	C(=C\c1ccc2c(c1)COC(N[C@@H]1CCc3ccccc31)=N2)/c1cccnc1 [Example 143, (R)-Indan-1-yl-[6-((E)-2-pyridin-3-yl-vinyl)-4H-benzo[d][1,3]oxazin-2-yl]-amine]
